Assay results published in article PMC6207370 (Xenobiotica; the fate of foreign compounds in biological …, 2017).
Like-named read-outs stand apart in the source and are kept apart here. Marks after values point to notes of the source that are not given here.

Key:
[1] = Incubations with guinea pig hepatic S9; settings: guinea pig hepatic S9; for Fm,AO Method A (fraction metabolized by AO): method A (eq. 4); for Fm,AO Method B (fraction metabolized by AO): method B (eq. 5), values > 1 assumed equal to 1
[2] = Incubations with mouse hepatic S9; settings: for CLint scaled at 1 μM: male, CD-1, mouse, Table 1, triplicate, 2–3 experiments; for Fm,AO Method A (fraction metabolized by AO): method A (eq. 4); for Fm,AO Method B (fraction metabolized by AO): method B (eq. 5), values > 1 assumed equal to 1
[3] = Incubations with cynomolgus monkey hepatic S9; settings: cynomolgus monkey hepatic S9; for Fm,AO Method A (fraction metabolized by AO): method A (eq. 4); for Fm,AO Method B (fraction metabolized by AO): method B (eq. 5), values > 1 assumed equal to 1
[4] = Incubations with rhesus monkey hepatic S9; settings: rhesus monkey hepatic S9; for Fm,AO Method A (fraction metabolized by AO): method A (eq. 4); for Fm,AO Method B (fraction metabolized by AO): method B (eq. 5), values > 1 assumed equal to 1
[5] = Incubations with rat hepatic S9; settings: for CLint scaled at 1 μM: male, Sprague-Dawley, Table 1, triplicate, 2–3 experiments; for CLint scaled at 1 μM / CLHEP (hepatic clearance): rat; for CLHEP (hepatic clearance): well-stirred model from S9 CLint (+NADPH), uncorrected for fraction unbound
[6] = type: in vitro ADME
[7] = Incubations with human hepatic S9; settings: for CLint scaled at 1 μM: both, human; for Fm,AO Method A (fraction metabolized by AO) / Fm,AO Method B (fraction metabolized by AO) / Fm,AO (fraction metabolized by AO): human hepatic S9; for Fm,AO Method A (fraction metabolized by AO): method A (eq. 4); for Fm,AO Method B (fraction metabolized by AO): method B (eq. 5), values > 1 assumed equal to 1; for Fm,AO (fraction metabolized by AO): methods A and B taken together (data from Table 3)
[8] = Incubations with minipig hepatic S9; settings: for CLint scaled at 1 μM: male, Gottingen, minipig, Table 1, triplicate, 2–3 experiments; for Fm,AO Method A (fraction metabolized by AO): method A (eq. 4); for Fm,AO Method B (fraction metabolized by AO): method B (eq. 5), values > 1 assumed equal to 1
Allometric scaling = assay: Allometric scaling; design: species or system human; settings: exponent 0.75
[9] = rat; ref Dalvie D, Zhang C, Chen W, et al. (2010); cited from earlier work
[10] = mouse; ref Dalvie D, Zhang C, Chen W, et al. (2010); cited from earlier work
[11] = cynomolgus monkey; ref Dalvie D, Zhang C, Chen W, et al. (2010); cited from earlier work

SMILES | Fm,AO Method A (fraction metabolized by AO) [1] | Fm,AO Method B (fraction metabolized by AO) [1] | Fm,AO Method A (fraction metabolized by AO) ([2]; mouse hepatic S9) | Fm,AO Method B (fraction metabolized by AO) ([2]; mouse hepatic S9) | Fm,AO Method A (fraction metabolized by AO) [3] | Fm,AO Method B (fraction metabolized by AO) [3] | Fm,AO Method A (fraction metabolized by AO) [4] | Fm,AO Method B (fraction metabolized by AO) [4] | CLHEP (hepatic clearance) [5] | Fm,AO Method A (fraction metabolized by AO) [7] | Fm,AO Method B (fraction metabolized by AO) [7] | Fm,AO (fraction metabolized by AO) [7] | Fm,AO Method A (fraction metabolized by AO) ([8]; minipig hepatic S9) | Fm,AO Method B (fraction metabolized by AO) ([8]; minipig hepatic S9) | further results
CCN(C(C)=O)c1cccc(-c2ccnc3c(C#N)cnn23)c1 [Zaleplon, zaleplon] | 1 | 0.50 | 0.22 | 0 | 1 | 0.70 | 0.42 | 0.65 | 0.762 ± 0.126 L/h/kg | 1 | 0.71 | ≥ 0.71 | 0.17 | 0 | CLint scaled at 1 μM ([2]; s9, pH 7.4, CLint (intrinsic clearance) in hepatic S9, mouse hepatic S9, in the presence of NADPH): 1.46 ± 0.317 L/h/kg; CLint scaled at 1 μM ([5]; s9, pH 7.4, CLint (intrinsic clearance) in hepatic S9, rat hepatic S9, in the presence of NADPH): 0.936 ± 0.183 L/h/kg; Fm,AO, across species ([6]; cynomolgus monkey, rhesus monkey, and guinea pig S9): 0.42–0.70; Fm,AO, across species ([6]; mouse and minipig S9): ≤ 0.22; CLint scaled at 1 μM ([7]; s9, pH 7.4, CLint (intrinsic clearance) in hepatic S9, human hepatic S9, in the presence of NADPH, Table 1, triplicate, 2–3 experiments): 0.348 ± 0.0612 L/h/kg; CLint scaled at 1 μM ([7]; s9, pH 7.4, CLint −NADPH, human hepatic S9 without NADPH): 0.238 ± 0.081 L/h/kg; CLint scaled at 1 μM ([8]; s9, pH 7.4, CLint (intrinsic clearance) in hepatic S9, minipig hepatic S9, in the presence of NADPH): 0.333 ± 0.0804 L/h/kg; Fm,AO (fraction metabolized by AO) ([8]; minipig hepatic S9, methods A and B taken together): ≤ 0.17
N=C(N)NC(=O)c1cnn(-c2cccc3ncccc23)c1C1CC1 [Zoniporide] | 0.84 | 0.97 | 0.90 | 0.90 | 0.90 | 1 | 0.77 | 1^# | 3.65 ± 0.0291 L/h/kg | 0.77 | 0.72 | 0.72–0.77 | 0.83 | 0.97 | SSS Human Predicted S9 CLint (Allometric scaling; single-species scaling from cynomolgus monkey S9 CLint): 1.84 L/h/kg; SSS Human Predicted S9 CLint (Allometric scaling; single-species scaling from mouse S9 CLint): 2.59 L/h/kg; SSS Human Predicted S9 CLint (Allometric scaling; single-species scaling from rat S9 CLint): 6.84 L/h/kg; CLint scaled at 1 μM ([2]; hepatic S9, pH 7.4, CLint (intrinsic clearance) in hepatic S9, mouse hepatic S9, in the presence of NADPH): 19.9 ± 0.678 L/h/kg; Fm,AO (fraction metabolized by AO) ([2]; mouse hepatic S9, methods A and B taken together (data from Table 3)): 0.90; SSS Human Predicted CLp (Single-species scaling; single-species scaling from literature cynomolgus monkey CLp): 0.912 L/h/kg; SSS Human Predicted CLp (Single-species scaling; single-species scaling from literature mouse CLp): 2.35 L/h/kg; SSS Human Predicted CLp (Single-species scaling; single-species scaling from literature rat CLp): 3.76 L/h/kg; CLp (plasma clearance) [9]: 237^§ mL/min/kg; CLp (plasma clearance) [10]: 298^§ mL/min/kg; Fm,AO (fraction metabolized by AO) ([3]; methods A and B taken together (data from Table 3)): ≥ 0.90; CLint scaled at 1 μM ([5]; hepatic S9, pH 7.4, CLint (intrinsic clearance) in hepatic S9, rat hepatic S9, in the presence of NADPH): 28 ± 1.62 L/h/kg; Fm,AO Method A (fraction metabolized by AO) ([5]; rat hepatic S9, method A (eq. 4)): 0.74; Fm,AO Method B (fraction metabolized by AO) ([5]; rat hepatic S9, method B (eq. 5), values > 1 assumed equal to 1): 0.72; Fm,AO (fraction metabolized by AO) ([5]; rat hepatic S9, methods A and B taken together (data from Table 3)): 0.72–0.74; Fm,AO, across species ([6]; all species): > 0.70; CLint scaled at 1 μM ([7]; hepatic S9, pH 7.4, CLint (intrinsic clearance) in hepatic S9, human hepatic S9, in the presence of NADPH, Table 1, triplicate, 2–3 experiments): 1.07 ± 0.106 L/h/kg; CLint scaled at 1 μM ([7]; hepatic S9, pH 7.4, CLint −NADPH, human hepatic S9 without NADPH): 1.03 ± 0.0918 L/h/kg; CLp (plasma clearance) [11]: 31^§ mL/min/kg; CLint scaled at 1 μM ([8]; hepatic S9, pH 7.4, CLint (intrinsic clearance) in hepatic S9, minipig hepatic S9, in the presence of NADPH): 1.4 ± 0.124 L/h/kg
